pIC50: −log10 of the molar value.

Experiment [1] concerns the target T1, hTRPA1 (Homo sapiens, UniProt O75762, K186N).
T1 construct: expressed in transfected cells; host or cells: HEK293/TREx (Invitrogen), induced with tetracycline
In words: TRPA1 patch clamp (perforated patch, AITC-activated current). In kind it is cell-based. The text has this: Patch clamp experiments permit the detection of currents through the TRPA1 channel in the cell line described above. To permit recording of current at a stable level and prevent the “rundown” observed by other labs, it is necessary to use the perforated patch technique, which prevents dialysis of the cytoplasm with the pipette solution. In normal whole-cell patch clamp recordings, a glass electrode is brought into contact with a single cell and a high-resistance (gigaohm) seal is established with the cell membrane. The membrane is then ruptured to achieve the whole-cell configuration, permitting control of the voltage of the cell membrane and measurement of currents flowing across the membrane using the amplifier attached to the electrode and resulting in the replacement of cytoplasm with the pipette solution. In contrast, in the perforated patch mode, an antibiotic, amphotericin, is present in the pipette solution and diffuses into contact with the cell after the seal is achieved, over the course of several minutes. The amphotericin forms ion-permeable pores in the membrane under the pipette, permitting passage of some ions but maintaining most native cytosolic components. A perfusion system permits control of the extracellular solution, including the addition of blockers and activators of the current. The current can be activated by addition of 5 μM AITC to the solution. […] In some cases, cells were grown in low density overnight on glass coverslips. Patch clamp recordings were made in the whole-cell mode with a holding potential of −40 mV. Every 5 seconds, a voltage ramp was applied from −120 to +100 mV, 400 ms in duration. Currents elicited were quantified at −80 mV and +80 mV. […] The external solution consisted of 150 mM NaCl, 4.5 mM KCl, 3 mM MgCl2, 10 mM HEPES, […], 1 mM EGTA, pH 7.4. Upon addition of AITC, TRPA1 current was induced only in TRPA1-expressing cells and not in parental HEK293 TREx cells. Removal of the AITC stimulus causes most of the current to go away. Potential blockers were tested for ability to block both inward and outward currents in the continued presence of AITC.

Experiment [2] addresses T1, hTRPA1. Briefly: High throughput Ca2+ fluorescence (Fluo4) assay, AITC stimulation. The class given is cell-based. Particulars: Table 2; read-out: hTRPA1 Fluor IC50. The method, boiled down:
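Tetracycline-induced HEK293/TREx cells loaded with 1 μM Fluo4/AM for 60 min at room temperature. Compound added for 2 min after a 4-frame baseline, then AITC; fluorescence followed ~3 min.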

Where [3] appears, read: Table 2, inward current, read-out: hTRPA1 Patch Inwd IC50.
The mark [4] stands for this setting: Table 1, read-out: hTRPA1 Patch IC50.

T1 sequence (O75762 whole entry K186N): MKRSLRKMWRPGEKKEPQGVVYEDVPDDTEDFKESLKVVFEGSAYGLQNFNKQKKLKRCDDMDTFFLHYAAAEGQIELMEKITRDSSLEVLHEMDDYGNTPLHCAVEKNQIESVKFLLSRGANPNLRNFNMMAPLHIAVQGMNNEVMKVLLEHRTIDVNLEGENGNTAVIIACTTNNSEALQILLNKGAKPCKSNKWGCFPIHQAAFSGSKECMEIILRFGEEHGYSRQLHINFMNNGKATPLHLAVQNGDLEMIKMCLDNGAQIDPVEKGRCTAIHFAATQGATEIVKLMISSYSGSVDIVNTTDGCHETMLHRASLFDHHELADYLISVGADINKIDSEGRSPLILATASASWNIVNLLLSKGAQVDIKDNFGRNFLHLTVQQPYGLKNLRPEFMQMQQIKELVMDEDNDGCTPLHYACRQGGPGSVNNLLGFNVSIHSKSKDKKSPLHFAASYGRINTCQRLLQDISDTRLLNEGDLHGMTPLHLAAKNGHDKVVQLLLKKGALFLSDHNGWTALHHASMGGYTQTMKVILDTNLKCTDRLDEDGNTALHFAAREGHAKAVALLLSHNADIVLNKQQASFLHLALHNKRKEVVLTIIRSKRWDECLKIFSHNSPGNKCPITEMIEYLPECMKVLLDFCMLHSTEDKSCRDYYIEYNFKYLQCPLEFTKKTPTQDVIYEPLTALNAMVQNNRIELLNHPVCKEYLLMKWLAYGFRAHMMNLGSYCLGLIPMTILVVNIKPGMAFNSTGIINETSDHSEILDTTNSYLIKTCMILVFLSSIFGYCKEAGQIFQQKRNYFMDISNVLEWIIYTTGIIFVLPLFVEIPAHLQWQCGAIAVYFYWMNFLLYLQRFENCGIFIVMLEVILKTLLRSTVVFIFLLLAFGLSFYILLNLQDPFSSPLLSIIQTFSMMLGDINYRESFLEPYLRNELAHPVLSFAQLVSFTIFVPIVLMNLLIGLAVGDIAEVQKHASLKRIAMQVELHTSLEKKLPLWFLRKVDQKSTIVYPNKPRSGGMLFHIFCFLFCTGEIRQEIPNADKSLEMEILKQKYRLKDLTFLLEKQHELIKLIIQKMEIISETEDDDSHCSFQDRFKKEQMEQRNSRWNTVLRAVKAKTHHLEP

For `CC(C)c1ccc(NC(=O)Cn2cnc3[nH]c(=O)n(C)c(=O)c32)cc1` [Compound 391, N-(4-isopropylphenyl)-2-(1-methyl-2,6-dioxo-1,2,3,6-tetrahydropurin-7-yl)acetamide], on hTRPA1 [1] (setting [3]), the negative-log IC50 (pIC50) is at least 5.00. As for `COC(=O)C1=C(c2ccccc2)NC(=S)NC1c1ccc(OC)c(OC)c1` (stereo not shown), the pIC50 at hTRPA1 [1] (setting [4]) is at least 5.00. Take `Cn1c(=O)c2c(ncn2CC(=O)Nc2ccc3ccccc3c2)n(C)c1=O` [Compound 213]: the figures for the pIC50 on hTRPA1 [1] (setting [3]) and on hTRPA1 [2] were under 5.00 and at least 5.00, respectively. On to `Cn1c(=O)c2c(ncn2CC(=O)Nc2ccc(Nc3ccccc3)cc2)n(C)c1=O` [Compound 250], for which the negative-log IC50 (pIC50) is at least 6.00 on hTRPA1 [1] (setting [3]) and at least 5.30 at hTRPA1 [2]. Consider `Cn1c(=O)c2c(ncn2CC(=O)Nc2ccc(F)c(Cl)c2)n(C)c1=O` [Compound 281], for which the pIC50 at hTRPA1 [1] (setting [3]) is at least 5.00; at hTRPA1 [2], at least 5.30. In the case of `Cc1cc(Br)ccc1NC(=O)Cn1cnc2c1c(=O)n(C)c(=O)n2C` [Compound 204], the values for the negative logarithm of the IC50 (pIC50) at hTRPA1 [1] (setting [3]) and at hTRPA1 [2] were under 5.00 and at least 5.00, respectively. For the compound `Cn1c(=O)c2c(ncn2CC(=O)NCc2ccccc2Cl)n(C)c1=O` [Compound 236], at hTRPA1 [1] (setting [3]), the negative-log IC50 (pIC50) was under 5.00. Regarding `Cn1c(=O)c2c(ncn2CC(=O)NCCc2ccc(Cl)c(Cl)c2)n(C)c1=O` [Compound 396, N-[2-(3,4-Dichlorophenyl)-ethyl]-2-(1,3-dimethyl-2,6-dioxo-1,2,3,6-tetrahydro-purin-7-yl)-acetamide], on hTRPA1 [1] (setting [3]), the pIC50 is at least 6.00.

`CC(C)c1ccc(NC(=O)C(C)(C)n2cnc3c2c(=O)n(C)c(=O)n3C)cc1` [Compound 387, 2-(1,3-dimethyl-2,6-dioxo-1,2,3,6-tetrahydropurin-7-yl)-N-(4-isopropylphenyl)-2-methylpropanamide]: on hTRPA1 [1] (setting [3]), the pIC50 was under 5.00. Turning to `Cn1c(=O)c2c(ncn2CC(=O)Nc2ccc(C(C)(C)O)cc2)n(C)c1=O` [Compound 402, 2-(1,3-dimethyl-2,6-dioxo-1,2,3,6-tetrahydropurin-7-yl)-N-(4-(2-hydroxypropan-2-yl)phenyl)acetamide], the pIC50 at hTRPA1 [1] (setting [3]) is at least 5.30. On to `CCOC(=O)C1=C(c2ccccc2)NC(=S)NC1c1cc(O)ccc1Br` (stereo not shown) [drawing 265], for which, on hTRPA1 [1] (setting [4]), the negative logarithm of the IC50 (pIC50) was at least 6.30. Consider `CC(C)c1ccc(N(C)C(=O)Cn2cnc3[nH]c(=O)n(C)c(=O)c32)cc1` [Compound 392, N-(4-isopropylphenyl)-N-methyl-2-(1-methyl-2,6-dioxo-1,2,3,6-tetrahydropurin-7-yl)acetamide], for which the pIC50 at hTRPA1 [1] (setting [3]) was under 5.00. In the case of `CN(C)c1ccc(CCNC(=O)Cn2cnc3c2c(=O)n(C)c(=O)n3C)cc1` [Compound 397, N-[2-(4-Dimethylaminophenyl)-ethyl]-2-(1,3-dimethyl-2,6-dioxo-1,2,3,6-tetrahydropurin-7-yl)-acetamide], at hTRPA1 [1] (setting [3]), the pIC50 is at least 5.30.

Consider `CC(C)c1ccc(NC(=O)Cn2cnc3[nH]c(=O)[nH]c(=O)c32)cc1` [Compound 399, 2-(2,6-dioxo-1,2,3,6-tetrahydropurin-7-yl)-N-(4-isopropylphenyl)acetamide], for which the pIC50 at hTRPA1 [1] (setting [3]) was at least 5.00. The same measure, in the same setting: the result for `Cc1ccccc1CCNC(=O)Cn1cnc2c1c(=O)n(C)c(=O)n2C` [Compound 406, N-(2-methylphenethyl)-2-(1,3-dimethyl-2,6-dioxo-1,2,3,6-tetrahydropurin-7-yl)acetamide] reads at least 5.00; that for `COc1ccc(CCCNC(=O)Cn2cnc3c2c(=O)n(C)c(=O)n3C)cc1` [Compound 401, 2-(1,3-Dimethyl-2,6-dioxo-1,2,3,6-tetrahydropurin-7-yl)-N-[3-(4-methoxy-phenyl)-propyl]-acetamide], at least 5.30; that for `Cc1cccc(CCNC(=O)Cn2cnc3c2c(=O)n(C)c(=O)n3C)c1` [Compound 407, 2-(1,3-Dimethyl-2,6-dioxo-1,2,3,6-tetrahydropurin-7-yl)-N-[2-(3-methyl-phenyl)-ethyl]-acetamide], at least 5.00. Take `Cn1c(=O)c2c(ncn2CC(=O)Nc2ccc3c(c2)CCC3)n(C)c1=O` [Compound 240]: the pIC50 at hTRPA1 [1] (setting [3]) was at least 5.30. `Cn1c(=O)[nH]c(=O)c2c1ncn2CC(=O)Nc1ccc(C2CCCC2)cc1` [Compound 394, N-(4-cyclopentylphenyl)-2-(3-methyl-2,6-dioxo-1,2,3,6-tetrahydropurin-7-yl)acetamide]: the pIC50 on hTRPA1 [1] (setting [3]) is at least 5.30. `CCOC(=O)C1=C(c2ccccc2)NC(=S)NC1c1cc(O)ccc1Br` (stereo not shown) [drawing 264]: the pIC50 on hTRPA1 [1] (setting [4]) is at least 6.00. With `Cn1c(=O)c2c(ncn2CC(=O)NCCc2ccccc2Cl)n(C)c1=O` [Compound 405, N-(2-chlorophenethyl)-2-(1,3-dimethyl-2,6-dioxo-1,2,3,6-tetrahydropurin-7-yl)acetamide], on hTRPA1 [1] (setting [3]), the pIC50 was at least 5.00. Regarding `Cn1c(=O)c2c(ncn2CC(=O)Nc2ccccc2C2CCCC2)n(C)c1=O` [Compound 398, N-(2-cyclopentylphenyl)-2-(1,3-dimethyl-2,6-dioxo-1,2,3,6-tetrahydropurin-7-yl)acetamide], the pIC50 at hTRPA1 [1] (setting [3]) is at least 5.00. Turning to `COc1ccc(Cl)cc1NC(=O)Cn1cnc2c1c(=O)n(C)c(=O)n2C` [Compound 285], the pIC50 on hTRPA1 [1] (setting [3]) is at least 5.30. Turning to `COc1ccc(CCNC(=O)Cn2cnc3c2c(=O)n(C)c(=O)n3C)cc1OC` [Compound 390], the IC50 against hTRPA1 [1] (hTRPA1 Patch Inwd IC50 (nM), Table 2, inward current) was at most 10000 nM. Consider `Cn1c(=O)c2c(ncn2CC(=O)NCCc2ccccc2F)n(C)c1=O` [Compound 404, N-(2-fluorophenethyl)-2-(1,3-dimethyl-2,6-dioxo-1,2,3,6-tetrahydropurin-7-yl)acetamide], for which the negative logarithm of the IC50 (pIC50) at hTRPA1 [1] (setting [3]) was at least 6.00. For `Cc1ccc(CCNC(=O)Cn2cnc3c2c(=O)n(C)c(=O)n3C)cc1` [Compound 400, 2-(1,3-Dimethyl-2,6-dioxo-1,2,3,6-tetrahydro-purin-7-yl)-N-(2-p-tolyl-ethyl)-acetamide], the pIC50 on hTRPA1 [1] (setting [3]) was at least 6.00.

Take `Cn1c(=O)c2c(ncn2CC(=O)Nc2ccc(C3CCCC3)cc2)n(C)c1=O` [Compound 395, N-(4-cyclopentylphenyl)-2-(1,3-dimethyl-2,6-dioxo-1,2,3,6-tetrahydropurin-7-yl)acetamide]: at hTRPA1 [1] (setting [3]), the negative logarithm of the IC50 (pIC50) is at least 6.30. Regarding `Cn1c(=O)c2c(ncn2CC(=O)NCCc2ccc(S(N)(=O)=O)cc2)n(C)c1=O` [Compound 389], the pIC50 on hTRPA1 [1] (setting [3]) is under 5.00. `COc1cccc(CCNC(=O)Cn2cnc3c2c(=O)n(C)c(=O)n3C)c1` [Compound 408, 2-(1,3-Dimethyl-2,6-dioxo-1,2,3,6-tetrahydropurin-7-yl)-N-[2-(3-methoxy-phenyl)-ethyl]acetamide]: the pIC50 on hTRPA1 [1] (setting [3]) was at least 5.30. Still for that read-out and setting: under `COc1ccccc1CCNC(=O)Cn1cnc2c1c(=O)n(C)c(=O)n2C` [Compound 403, N-(2-methoxyphenethyl)-2-(1,3-dimethyl-2,6-dioxo-1,2,3,6-tetrahydropurin-7-yl)acetamide] stands under 5.00; under `CC(C)c1ccc(N(C)C(=O)Cn2cnc3c2c(=O)n(C)c(=O)n3C)cc1` [Compound 393, 2-(1,3-dimethyl-2,6-dioxo-1,2,3,6-tetrahydropurin-7-yl)-N-(4-isopropylphenyl)-N-methylacetamide], under 5.00; under `Cn1c(=O)c2c(ncn2CC(=O)NCCc2ccc(C#N)cc2)n(C)c1=O` [Compound 409, N-[2-(4-Cyanophenyl)-ethyl]-2-(1,3-dimethyl-2,6-dioxo-1,2,3,6-tetrahydro-purin-7-yl)-acetamide], at least 5.00. With `CC(C)c1ccc(NC(=O)Cn2cnc3c2c(=O)[nH]c(=O)n3C)cc1` [Compound 388, N-(4-isopropylphenyl)-2-(3-methyl-2,6-dioxo-1,2,3,6-tetrahydropurin-7-yl)acetamide], the pIC50 on hTRPA1 [1] (setting [3]) is under 5.00.

In general, pIC50 refers to the negative decadic logarithm of the IC50, by convention in mol/L. The IC50 is the concentration that gives 50% inhibition. A lower IC50 goes with inhibition by little substance.

The values above are taken from patent publication US7671061B2, “Methods and compositions for treating pain” (Hydra Biosciences, Inc., priority 2005, dated 2010).
